Reference: US12509467B2 (Hoffmann-La Roche Inc., priority 2020, dated 2025)

molecular target: T1, human cGAS (residues 161-522) (Homo sapiens, UniProt Q8N884); test: cGAS Activity Assay—Malachite Green; assay type: biochemical; details: not given
T1 construct: Recombinantly expressed purified human cGAS (residues 161-522) was used at 25 nM; made in house
Method: Compounds were tested for cGAS inhibition in a coupled enzymatic assay based on Phosphate detection by Malachite Green. Final assay conditions were 20 mM TRIS pH 7.5 (Applichem), 5 mM MgCl2 (Sigma) and 0.01% BSA (Sigma) supplemented with 80 μM ATP (Sigma), 80 μM GTP (Sigma) and 100 nM Interferon Stimulating DNA (ISD) (Microsynth).
1 μL of DMSO dilution series was transferred to 32.3 μL reaction buffer, mixed by pipetting up/down, spun for 1 minute at 3000 rpm and was visually inspected for precipitation. 5 μL of 3-fold enzyme stock solution were transferred to an empty 384-well Black/Clear Flat Bottom Polystyrene NBS (Corning) rows 3-24. Rows 1-2 were filled with assay buffer. Plates were spun 10 seconds at 1000 rpm (164×g). 5 μL of compound intermediate dilution was added and mixed by pipetting up/down to rows 3-24. Rows 1-2 were filled with 3.1% DMSO assay buffer. Plates were spun 10 seconds at 1000 rpm (164×g). 5 μL 3-fold Nucleotide/DNA mix was added to all wells to start the reaction. Plates were spun 10 seconds at 1000 rpm (164×g) and incubated for 4 hour at room temperature (RT) in the dark. 5 μL 4 U/mL PPase (Sigma) were added to all wells. Plates spun 10 seconds at 1000 rpm (164×g). 10 μL BioMol green Solution (Enzo Life Sciences) was added to all wells. Plates spun 10 seconds at 1000 rpm (164×g) and incubated 30 minutes at RT in the dark. Absorbance data was collected 620 nm on an EnVision Multilable Reader (Perkin Elmer) and the following measurement settings were used: excitation filter photometric was 620 nm; excitation from the top; measurement height was 1 mm; number of flashes was 30; number of flashes integrated was 1.
All plates are checked for abnormalities and outliers in the Blank Control (no protein, row 1) and the Neutral Control (no compound, row 2) are excluded using the 3*SD rule.
Table 5 provides IC50 values (μM) for cGAS inhibition obtained for particular examples of the present invention as measured by the above-described assay.

T1 sequence (Q8N884 161-522): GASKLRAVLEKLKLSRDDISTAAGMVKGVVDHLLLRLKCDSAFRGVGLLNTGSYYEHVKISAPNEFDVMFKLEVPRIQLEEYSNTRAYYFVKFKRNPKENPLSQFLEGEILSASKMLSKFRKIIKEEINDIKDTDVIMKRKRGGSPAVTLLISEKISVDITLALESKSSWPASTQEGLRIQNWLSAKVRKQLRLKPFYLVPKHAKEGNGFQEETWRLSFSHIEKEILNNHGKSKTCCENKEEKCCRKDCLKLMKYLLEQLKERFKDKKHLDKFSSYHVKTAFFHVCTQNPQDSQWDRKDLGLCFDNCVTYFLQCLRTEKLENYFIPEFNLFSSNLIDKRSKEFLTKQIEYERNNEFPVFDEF

In order of rising IC50:
1. CCCc1cc(=O)n2nc(NCc3cc(-c4ccncc4)ccc3Cl)nc2[nH]1 [Example 25, 2-[[2-chloro-5-(4-pyridyl)phen-yl]methylamino]-5-propyl-4H-[1,2,4]triazolo[1,5-a]pyrimidin-7-one]  287 nM
2. CCCc1cc(=O)n2nc(NCc3cc(-n4cncc4C)ccc3Cl)nc2[nH]1 [Example 87, 2-[[2-chloro-5-(5-methylimidazol-1-yl)phenyl]methylamino]-5-propyl-4H-[1,2,4]triazolo[1,5-a]pyrimidin-7-one]  640 nM
3. CCCc1cc(=O)n2nc(NCc3cc(-c4ccccn4)ccc3Cl)nc2[nH]1 [Example 29, 2-[[2-chloro-5-(2-pyridyl)phen-yl]methylamino]-5-propyl-4H-[1,2,4]triazolo[1,5-a]pyrimidin-7-one]  668 nM
4. CCCc1cc(=O)n2nc(NCc3cc(-c4ccn(C)n4)ccc3C)nc2[nH]1 [Example 83, 2-[[2-methyl-5-(1-methyl-pyrazol-3-yl)phenyl]methyl-amino]-5-propyl-4H-[1,2,4]-triazolo[1,5-a]pyrimidin-7-one]  1240 nM
5. CCCc1cc(=O)n2nc(NCc3ccc(C(C)C)cc3)nc2[nH]1 [Example 55, 2-[(4-propan-2-ylphenyl)meth-ylamino]-5-propyl-4H-[1,2,4]-triazolo[1,5-a]pyrimidin-7-one]  1590 nM
6. Cn1ccc(-c2ccc(Cl)c(CNc3nc4[nH]c(CCc5ccccc5)cc(=O)n4n3)c2)n1 [Example 26, 2-[[2-chloro-5-(1-methylpyrazol-3-yl)phenyl]methylamino]-5-(2-phenylethyl)-4H-[1,2,4]-triazolo[1,5-a]pyrimidin-7-one]  1600 nM
7. CCCc1cc(=O)n2nc(NCc3cccc(-c4ccn(C)n4)c3)nc2[nH]1 [Example 13, 2-[[3-(1-methylpyrazol-3-yl)-phenyl]methylamino]-5-propyl-4H-[1,2,4]triazolo[1,5-a]-pyrimidin-7-one]  1940 nM
8. CC(C)c1cc(=O)n2nc(NCc3ccc(Cl)cc3Cl)nc2[nH]1 [Example 61, 2-[(2,4-dichlorophenyl)methyl-amino]-5-isopropyl-4H-[1,2,4]-triazolo[1,5-a]pyrimidin-7-one]  2740 nM
9. CC(C)Cc1cc(=O)n2nc(NCc3ccc(Cl)cc3Cl)nc2[nH]1 [Example 64, 2-[(2,4-dichlorophenyl)methyl-amino]-5-isobutyl-4H-[1,2,4]-triazolo[1,5-a]pyrimidin-7-one]  3330 nM
10. CCCc1cc(=O)n2nc(NCc3cnc(N4CCN(C)CC4)cc3Cl)nc2[nH]1 [Example 100]  5220 nM
11. O=c1nc(CCc2ccccc2)[nH]c2nc(NCc3ccc(Cl)cc3Cl)nn12 [Example 101, 2-[(2,4-Dichlorophenyl)methylamino]-5-(2-phenylethyl)-4H-[1,2,4]triazolo[1,5-a][1,3,5]-triazin-7-one]  7790 nM

same assay, conditions: cGAS inhibition; 25 nM cGAS, 80 μM ATP, 80 μM GTP, 100 nM ISD, 4 hour at RT, Malachite Green phosphate detection; read-out: IC50 cGAS

In order of rising IC50:
1. O=c1cc(Cc2ccccc2)[nH]c2nc(NCc3cc(-c4ccncc4)ccc3Cl)nn12 [Example 31, 5-benzyl-2-[[2-chloro-5-(4-pyridyl)phenyl]methylamino]-4H-[1,2,4]triazolo[1,5-a]-pyrimidin-7-one]  78 nM
2. Cn1ccc(-c2ccc(Cl)c(CNc3nc4[nH]c(CCCC(F)F)cc(=O)n4n3)c2)n1 [Example 50, 2-[[2-chloro-5-(1-methylpyrazol-3-yl)phenyl]methylamino]-5-(4,4-difluorobutyl)-4H-[1,2,4]-triazolo[1,5-a]pyrimidin-7-one]  263 nM
3. CCCc1cc(=O)n2nc(NCc3cc(-c4cnn(C)c4)ccc3Cl)nc2[nH]1 [Example 24, 2-[[2-chloro-5-(1-methylpyrazol-4-yl)phenyl]methylamino]-5-propyl-4H-[1,2,4]triazolo[1,5-a]pyrimidin-7-one]  401 nM
4. COCCCc1cc(=O)n2nc(NCc3cc(-c4ccn(C)n4)ccc3Cl)nc2[nH]1 [Example 48, 2-[[2-chloro-5-(1-methylpyrazol-3-yl)phenyl]methylamino]-5-(3-methoxypropyl)-4H-[1,2,4]-triazolo[1,5-a]pyrimidin-7-one]  603 nM
5. CCCc1cc(=O)n2nc(NCc3ccc(-c4ccccc4)cc3)nc2[nH]1 [Example 67, 2-[(4-phenylphenyl)methyl-amino]-5-propyl-4H-[1,2,4]-triazolo[1,5-a]pyrimidin-7-one]  672 nM
6. CCCc1cc(=O)n2nc(NCc3cc(NC(=O)c4ccon4)ncc3Cl)nc2[nH]1 [Example 90, N-[5-Chloro-4-[[(7-oxo-5-propyl-4H-[1,2,4]triazolo[1,5-a]pyrimidin-2-yl)amino]methyl]-2-pyridyl]isoxazole-3-carboxamide]  807 nM
7. O=c1cc(C(F)(F)F)[nH]c2nc(NCc3ccc(-c4ccccc4)cc3)nn12 [Example 75, 2-[(4-phenylphenyl)methyl-amino]-5-(trifluoromethyl)-4H-[1,2,4]triazolo[1,5-a]pyrimidin-7-one]  827 nM
8. CCCc1cc(=O)n2nc(NCc3cc(N4CCOCC4)ccc3Cl)nc2[nH]1 [Example 39, 2-[(2-chloro-5-morpholinophen-yl)methylamino]-5-propyl-4H-[1,2,4]triazolo[1,5-a]pyrimidin-7-one]  1040 nM
9. CCCc1cc(=O)n2nc(NCc3cc(N4CCOCC4)ncc3Cl)nc2[nH]1 [Example 96, 2-[(5-Chloro-2-morpholino-4-pyridyl)methylamino]-5-propyl-4H-[1,2,4]triazolo[1,5-a]pyrimidin-7-one]  1160 nM
10. Cn1ccc(-c2ccc(F)c(CNc3nc4[nH]c(C(F)(F)F)cc(=O)n4n3)c2)n1 [Example 20, 2-[[2-fluoro-5-(1-methylpyrazol-3-yl)phenyl]methylamino]-5-(trifluoromethyl)-4H-[1,2,4]-triazolo[1,5-a]pyrimidin-7-one]  1240 nM
11. O=c1cc(C(F)(F)F)[nH]c2nc(NCc3ccc(Cl)cc3Cl)nn12 [Example 60, 2-[(2,4-dichlorophenyl)methyl-amino]-5-(trifluoromethyl)-4H-[1,2,4]triazolo[1,5-a]-pyrimidin-7-one]  1250 nM
12. CCCc1cc(=O)n2nc(NCc3cc(-c4ccn(C)n4)ccc3C(F)(F)F)nc2[nH]1 [Example 81, 2-[[5-(1-Methylpyrazol-3-yl)-2-(trifluoromethyl)phenyl]methylamino]-5-propyl-4H-[1,2,4]-triazolo[1,5-a]pyrimidin-7-one]  1690 nM
13. CCCc1cc(=O)n2nc(NCc3cc(-c4ccn(C)n4)ccc3OC)nc2[nH]1 [Example 28, 2-[[2-methoxy-5-(1-methyl-pyrazol-3-yl)phenyl]methyl-amino]-5-propyl-4H-[1,2,4]-triazolo[1,5-a]pyrimidin-7-one]  1910 nM
14. CCCc1cc(=O)n2nc(OCc3ccc(-c4ccccc4)cc3Cl)nc2[nH]1 [Example 92, 2-1(2-Chloro-4-phenyl-phenyl)methoxyl-5-propyl-4H-[1,2,4]triazolo[1,5-a]pyrimidin-7-one]  2180 nM
15. Cn1ccc(-c2ccc(CNc3nc4[nH]c(C(F)(F)F)cc(=O)n4n3)cc2)n1 [Example 18, 2-[[4-(1-methylpyrazol-3-yl)-phenyl]methylamino]-5-(trifluoromethyl)-4H-[1,2,4]-triazolo[1,5-a]pyrimidin-7-one]  2820 nM
16. CCCc1cc(=O)n2nc(NCc3ccc(OC)cc3F)nc2[nH]1 [Example 6, 2-[(2-fluoro-4-methoxyphenyl)-methylamino]-5-propyl-4H-[1,2,4]triazolo[1,5-a]pyrimidin-7-one]  2910 nM
17. O=c1cc(CC2CC2)[nH]c2nc(NCc3ccc(Cl)cc3Cl)nn12 [Example 63, 5-(cyclopropylmethyl)-2-[(2,4-dichlorophenyl)methylamino]-4H-[1,2,4]triazolo[1,5-a]-pyrimidin-7-one]  3590 nM
18. CCCc1cc(=O)n2nc(NCc3ccc(OC)cc3C)nc2[nH]1 [Example 70, 2-[(4-methoxy-2-methylphen-yl)methylamino]-5-propyl-4H-[1,2,4]triazolo[1,5-a]pyrimidin-7-one]  3640 nM
19. CCCc1cc(=O)n2nc(NCc3cc(N4CCN(C)CC4)ncc3Cl)nc2[nH]1 [Example 95, 2-[[5-chloro-2-(4-methyl-piperazin-1-yl)-4-pyridyl]-methylamino]-5-propyl-4H-[1,2,4]triazolo[1,5-a]pyrim-idin-7-one]  6670 nM
20. CCCc1cc(=O)n2nc(NC(C)c3ccc(Cl)cc3Cl)nc2[nH]1 (centres unmarked) [Example 76, 2-[1-(2,4-dichlorophenyl)ethyl-amino]-5-propyl-4H-[1,2,4]-triazolo[1,5-a]pyrimidin-7-one]  6720 nM
21. CCCc1cc(=O)n2nc(NCc3ccc(OC)cc3Cl)nc2[nH]1 [Example 69, 2-[(2-chloro-4-methoxyphen-yl)methylamino]-5-propyl-4H-[1,2,4]triazolo[1,5-a]pyrimidin-7-one]  9510 nM
